In patent publication EP4603105A1, “PHARMACEUTICAL COMPOSITION CONTAINING CYCLIC COMPOUND HAVING SELECTIVE KRAS INHIBITORY EFFECT AGAINST HRAS AND NRAS” (CHUGAI SEIYAKU KABUSHIKI KAISHA, priority 2022, dated 2024):
Where a SMILES comes first, the peptide text is derived from it. Bridges are numbered along the chain shown (N, C = ends). [ ]: non-standard residue; d: D form. The star is where a group is joined. hPhe(3-Cl-4-CF3) = N[C@@H](CCc1ccc(C(F)(F)F)c(Cl)c1)C(=O)O; NPrPhe(4-CF3) = CCCN[C@@H](Cc1ccc(C(F)(F)F)cc1)C(=O)O; NMeGly(cPent) = CN[C@H](C(=O)O)C1CCCC1; Pro(4,4-F2) = O=C(O)[C@@H]1CC(F)(F)CN1; NEtLeu = CCN[C@@H](CC(C)C)C(=O)O; NMeD = CN[C@@H](CC(=O)O)C(=O)O; NMeL = CN[C@@H](CC(C)C)C(=O)O; Morpholide = C1CN(*)CCO1; NMeA = CN[C@@H](C)C(=O)O; Ac5c = NC1(C(=O)O)CCCC1; Aze = O=C(O)[C@@H]1CCN1; Ac4c = NC1(C(=O)O)CCC1; Sar = CNCC(=O)O

Tests used:
[1] = biological target: GDP-bound NRAS wild-type protein (Homo sapiens, UniProt P01111); test: Binding to NRAS by surface plasmon resonance (SPR), KD and KD ratio to KRAS
Method in brief: (§1)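 Measured at 30°C: SPR with GDP-loaded, E. coli-expressed biotin-Avi RAS captured (~100–300 RU), ascending 75 s compound injections, HBS pH 7.4 with GDP, MgCl2, 4% DMSO. KD from 1:1 fit.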

[2] = test system: human lung cancer strain NCI-H441; assay type: cell-based
Method in brief: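 Signal came from […] measured per well once the reagent was added. Beforehand, cells were cultured at 37°C and 5% carbon dioxide on a compound series serially diluted in dimethyl sulfoxide.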

HRAS wild-type protein = HRAS wild-type protein (Homo sapiens, UniProt P01112); test: Binding to HRAS by surface plasmon resonance (SPR), KD and KD ratio to KRAS
Method in brief: as §1

[3] = ratio of KD for GDP-bound NRAS wild-type protein to KD for KRAS
[4] = ratio of KD for HRAS wild-type protein to KD for KRAS
[5] = ratio of the KD value with respect to GDP-bound NRAS wild-type protein to the KD value with respect to KRAS
[6] = ratio of the KD value with respect to HRAS wild-type protein to the KD value with respect to KRAS

Chain of HRAS wild-type protein (P01112 whole entry): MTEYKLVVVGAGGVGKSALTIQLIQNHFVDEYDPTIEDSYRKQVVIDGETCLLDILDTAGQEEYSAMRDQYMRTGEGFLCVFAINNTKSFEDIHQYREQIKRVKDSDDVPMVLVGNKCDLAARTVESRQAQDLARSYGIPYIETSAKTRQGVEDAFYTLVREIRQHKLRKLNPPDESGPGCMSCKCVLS
Chain of GDP-bound NRAS wild-type protein (P01111 whole entry): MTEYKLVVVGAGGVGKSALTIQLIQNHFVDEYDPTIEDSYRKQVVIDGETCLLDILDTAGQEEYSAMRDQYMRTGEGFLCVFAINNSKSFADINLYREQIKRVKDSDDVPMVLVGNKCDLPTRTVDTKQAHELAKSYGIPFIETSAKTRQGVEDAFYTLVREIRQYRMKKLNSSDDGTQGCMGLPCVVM

| SMILES | IC50 [2] | NRAS /KRAS [1, 3] | HRAS /KRAS (HRAS wild-type protein; [4]) | NRAS /KRAS [1, 5] | HRAS /KRAS (HRAS wild-type protein; [6]) |
| --- | --- | --- | --- | --- | --- |
| CCCN1C(=O)[C@@H]2CCN2C(=O)[C@H](C)N(C)C(=O)[C@H]([C@@H](C)CC)NC(=O)[C@H](CC(C)C)N(C)C(=O)C[C@@H](C(=O)N(C)C)NC(=O)[C@H](C2CCCC2)N(C)C(=O)C2(CCC2)NC(=O)[C@@H]2CC(F)(F)CN2C(=O)[C@H](CCc2ccc(C(F)(F)F)c(Cl)c2)NC(=O)CN(C)C(=O)[C@@H]1Cc1ccc(C(F)(F)F)cc1 [PP0382] ([NMeL]I[NMeA][Aze][NPrPhe(4-CF3)][Sar][hPhe(3-Cl-4-CF3)][Pro(4,4-F2)][Ac4c][NMeGly(cPent)]D-NMe2; lactam N-11) | 0.0121 µM | C (A compound having a KD ratio of 0.1 or more and less than 3 is denoted as C) | B (a compound having 3 or more and less than 10 is denoted as B) | – | – |
| CCC[C@@H]1C[C@H]2C(=O)NC3(CCCC3)C(=O)N(C)[C@@H](C3CCCC3)C(=O)N(C)[C@H](C(=O)N(C)CC)CC(=O)N(C)[C@@H](C)C(=O)N[C@@H]([C@@H](C)CC)C(=O)N(C)CC(=O)N(C)[C@H]3C/C=C\CCN(C3=O)[C@@H](Cc3ccc(C(F)(F)F)cc3)C(=O)N(C)CC(=O)N[C@@H](CCc3cc(F)c(C(F)(F)F)c(F)c3)C(=O)N2C1 [PP2272] | 0.106 µM | – | – | AA (a compound having 20 or more is denoted as AA) | A (a compound having 10 or more and less than 20 is denoted as A) |
| CCO[C@@H]1C[C@H]2C(=O)NC3(CCC3)C(=O)N(C)[C@@H](C3CCCC3)C(=O)N(C)[C@H](C(=O)N(C)C)CC(=O)N(C)[C@@H](C)C(=O)N[C@@H]([C@@H](C)CC)C(=O)N(C)CC(=O)N(C)[C@H]3CCCCN(C3=O)[C@@H](Cc3ccc(C(F)(F)F)cc3)C(=O)N(C)CC(=O)N[C@@H](CCc3cc(F)c(C(F)(F)F)c(F)c3)C(=O)N2C1 [PP0587] | 0.0051 µM | – | – | C (A compound having a KD ratio of 0.1 or more and less than 3 is denoted as C) | C (A compound having a KD ratio of 0.1 or more and less than 3 is denoted as C) |
| CCCN1C(=O)CN(C)C(=O)CNC(=O)[C@H]([C@@H](C)CC)NC(=O)[C@H](CC(C)C)N(CC)C(=O)C[C@@H](C(=O)N2CCOCC2)N(C)C(=O)[C@H](C2CCCC2)N(C)C(=O)C2(CCCC2)NC(=O)[C@@H]2CCCN2C(=O)[C@H](CCc2ccc(C(F)(F)F)c(Cl)c2)NC(=O)CN(C)C(=O)[C@@H]1Cc1ccc(C(F)(F)F)cc1 [PP1967] ([NEtLeu]IG[Sar][NPrPhe(4-CF3)][Sar][hPhe(3-Cl-4-CF3)]P[Ac5c][NMeGly(cPent)][NMeD]-Morpholide; lactam N-11) | 0.0109 µM | – | – | B (a compound having 3 or more and less than 10 is denoted as B) | B (a compound having 3 or more and less than 10 is denoted as B) |
| CC[C@H](C)[C@@H]1NC(=O)[C@H](CC)N(C)C(=O)C[C@@H](C(=O)N(C)C)N(C)C(=O)[C@H](C2CCCC2)N(C)C(=O)C2(CCC2)NC(=O)[C@@H]2C[C@H](N3CCC(F)(F)CC3)CN2C(=O)[C@H](CCc2cc(F)c(C(F)(F)F)c(F)c2)NC(=O)CN(C)C(=O)[C@H](Cc2ccc(C(F)(F)F)cc2)N2CCCCC[C@@H](C2=O)N(C)C(=O)CN(C)C1=O [PP0731] | 0.11 µM | – | – | B (a compound having 3 or more and less than 10 is denoted as B) | B (a compound having 3 or more and less than 10 is denoted as B) |
| CCO[C@@H]1C[C@H]2C(=O)NC3(CC(C)(C)C3)C(=O)N(C)[C@@H](C(CC)CC)C(=O)N(C)[C@H](C(=O)N(C)C)CC(=O)N(C)[C@@H](CC(C)C)C(=O)N[C@@H]([C@@H](C)CC)C(=O)N(C)CC(=O)N(C)[C@H]3C/C=C\CCN(C3=O)[C@@H](Cc3ccc(C(F)(F)F)cc3)C(=O)N(C)CC(=O)N[C@@H](CCc3ccc(C(F)(F)F)c(Cl)c3)C(=O)N2C1 [PP2132] | 0.0184 µM | – | – | AA (a compound having 20 or more is denoted as AA) | A (a compound having 10 or more and less than 20 is denoted as A) |
| CCCN(C)C(=O)[C@@H]1CC(=O)N(C)[C@@H](C2CC2)C(=O)N[C@@H]([C@@H](C)CC)C(=O)N(C)CC(=O)N(C)[C@H]2C/C=C\CCN(C2=O)[C@@H](Cc2ccc(C(F)(F)F)cc2)C(=O)N(C)CC(=O)N[C@@H](CCc2ccc(C(F)(F)F)c(OC)c2)C(=O)N2C[C@@H](C)C[C@H]2C(=O)NC2(CCC2)C(=O)N(C)[C@@H](C2CCCC2)C(=O)N1C [PP2070] | 0.0113 µM | – | – | A (a compound having 10 or more and less than 20 is denoted as A) | A (a compound having 10 or more and less than 20 is denoted as A) |
| CCO[C@@H]1C[C@H]2C(=O)NC3(CCC3)C(=O)N(C)[C@@H](C(CC)CC)C(=O)N(C)[C@H](C(=O)N3CCCCC3)CC(=O)N(C)[C@H]3CCC/C=C/c4ccc(cc4)C[C@@H](C(=O)N(C)CC(=O)N[C@@H](CCc4cc(F)c(C(F)(F)F)c(F)c4)C(=O)N2C1)N1CC/C=C\C[C@@H](C1=O)N(C)C(=O)CN(C1CC1)C(=O)[C@H]([C@@H](C)CC)NC3=O [PP2956] | 0.0278 µM | AA (a compound having 20 or more is denoted as AA) | A (a compound having 10 or more and less than 20 is denoted as A) | – | – |
| CC[C@H](C)[C@@H]1NC(=O)[C@H](COC)N(C)C(=O)C[C@@H](C(=O)N2CCOCC2)N(C)C(=O)[C@H](C2CCCC2)N(C)C(=O)C2(CCC2)NC(=O)[C@@H]2CCN2C(=O)[C@H](CCc2cc(F)c(C(F)(F)F)c(F)c2)NC(=O)CN(C)C(=O)[C@H](Cc2ccc(C(F)(F)F)cc2)N2CCCCC[C@@H](C2=O)N(C)C(=O)CN(C)C1=O [PP0840] | 0.572 µM | B (a compound having 3 or more and less than 10 is denoted as B) | B (a compound having 3 or more and less than 10 is denoted as B) | – | – |
| CCO[C@@H]1C[C@H]2C(=O)NC3(CCC3)C(=O)N(C)[C@@H](C3CCCC3)C(=O)N(CC)[C@H](C(=O)N(C)C)CC(=O)N(C)[C@@H](CC)C(=O)N[C@@H]([C@@H](C)CC)C(=O)N(C)CC(=O)N(C)[C@H]3CCCCCN(C3=O)[C@@H](Cc3ccc(C(F)(F)F)cc3)C(=O)N(C)CC(=O)N[C@@H](CCc3cc(F)c(C(F)(F)F)c(F)c3)C(=O)N2C1 [PP0633] | 0.116 µM | – | – | B (a compound having 3 or more and less than 10 is denoted as B) | B (a compound having 3 or more and less than 10 is denoted as B) |

Further molecules by falling IC50 [2], results first:

| IC50 [2] | SMILES | NRAS /KRAS [1, 3] | HRAS /KRAS (HRAS wild-type protein; [4]) | NRAS /KRAS [1, 5] | HRAS /KRAS (HRAS wild-type protein; [6]) |
| --- | --- | --- | --- | --- | --- |
| 0.0797 µM | CC[C@H](C)[C@@H]1NC(=O)[C@H](CC(C)C)N(C)C(=O)C[C@@H](C(=O)N2CCOCC2)N(C)C(=O)[C@H](C2CCCC2)N(C)C(=O)C2(CCC2)NC(=O)[C@@H]2[C@H](O)CCN2C(=O)[C@H](CCc2cc(F)c(C(F)(F)F)c(F)c2)NC(=O)CN(C)C(=O)[C@H](Cc2ccc(C(F)(F)F)cc2)N2CCCC[C@@H](C2=O)N(C)C(=O)CN(C)C1=O [PP0870] | B (a compound having 3 or more and less than 10 is denoted as B) | B (a compound having 3 or more and less than 10 is denoted as B) | – | – |
| 0.0175 µM | CCO[C@@H]1C[C@H]2C(=O)NC3(CCCC3)C(=O)N(C)[C@@H](C3CCCC3)C(=O)N(C)[C@H](C(=O)N(C)C)CC(=O)N(C)[C@@H](CC)C(=O)N[C@@H]([C@@H](C)CC)C(=O)N(C)CC(=O)N(C)[C@H]3C[C@@H](C)CCN(C3=O)[C@@H](Cc3ccc(C(F)(F)F)cc3)C(=O)N(C)CC(=O)N[C@@H](CCc3cc(F)c(C(F)(F)F)c(F)c3)C(=O)N2C1 [PP1022] | C (A compound having a KD ratio of 0.1 or more and less than 3 is denoted as C) | B (a compound having 3 or more and less than 10 is denoted as B) | – | – |
| 0.0166 µM | CCO[C@@H]1C[C@H]2C(=O)NC3(CCC3)C(=O)N(C)[C@@H](C3CCCC3)C(=O)N(C)[C@H](C(=O)N(C)C)CC(=O)N(C)[C@H]3CCCCCc4ccc(cc4)C[C@@H](C(=O)N(C)CC(=O)N[C@@H](CCc4cc(F)c(C(F)(F)F)c(F)c4)C(=O)N2C1)N1CC/C=C\C[C@@H](C1=O)N(C)C(=O)CN(C)C(=O)[C@H]([C@@H](C)CC)NC3=O [PP2261] | – | – | A (a compound having 10 or more and less than 20 is denoted as A) | A (a compound having 10 or more and less than 20 is denoted as A) |
| 0.0141 µM | CCC[C@H]1C(=O)N[C@@H]([C@@H](C)CC)C(=O)N(C)CC(=O)N(C)[C@H]2C/C=C\CCN(C2=O)[C@@H](Cc2ccc(C)cc2)C(=O)N(C)CC(=O)N[C@@H](CCc2cc(F)c(C(F)(F)F)c(F)c2)C(=O)N2C[C@H](OCC)C[C@H]2C(=O)NC2(CC(C)(C)C2)C(=O)N(C)[C@@H](CC(F)(F)F)C(=O)N(C)[C@H](C(=O)N(C)C)CC(=O)N1C [PP2993] | A (a compound having 10 or more and less than 20 is denoted as A) | A (a compound having 10 or more and less than 20 is denoted as A) | – | – |
| 0.0028 µM | CC[C@H](C)[C@@H]1NC(=O)[C@H](CC(C)C)N(C)C(=O)C[C@@H](C(=O)N(C)C)N(C)C(=O)[C@H](C2CCCC2)N(C)C(=O)C2(CCCC2)NC(=O)[C@@H]2CCCN2C(=O)[C@H](CCc2cc(F)c(C(F)(F)F)c(F)c2)NC(=O)CN(C)C(=O)[C@H](Cc2ccc(C(F)(F)F)cc2)N2CCCC[C@@H](C2=O)N(C)C(=O)CN(C)C1=O [PP0569] | – | – | C (A compound having a KD ratio of 0.1 or more and less than 3 is denoted as C) | B (a compound having 3 or more and less than 10 is denoted as B) |
